Data on one molecule can be found in patent publication US10624336B2, “In-vitro embryonic culture medium comprising an inhibitor of cathepsin L and the use of the same in embryo cryopreservation” (BEIJING UNIVERSITY OF AGRICULTURE, priority 2016, dated 2020).

“And” between values parts separate entries of the source, which are not always exact repeats. Equal entries are not always repeated. Marks after values point to notes of the source that are not given here.

In this assay the test system is normally hatched blastocysts from mice. Put plainly: Thawed recovery rate of normally hatched mouse blastocysts incubated with E-64d before programmed freezing. Type of assay: cell-based. The conditions noted are these: for the thawed recovery rate (%): 2 h incubation before freezing, counted after 24-hour recovery, mean ± SD. As for the experimental part: Female mice with pale pink vulvas were randomized and intraperitoneally injected with pregnant mare serum gonadotrophin (PMSG) at a dosage of 10 IU/mouse. After 48 hours, the female mice were further injected with human chorionic gonadotropin (hCG) at a dosage of 10 IU/mouse, and then were immediately housed in a cage with adult male mice at a ratio of 1:1 overnight for mating. The mice were checked for mating at 8 a.m. next day and injected with anti-PMSG (A-PMSG) at a dosage of 10 IU/mouse once the vaginal suppository was observed. The mice were sacrificed at 9 a.m. on Day 5 after the vaginal suppository was observed. The uteruses on both sides of the mice were removed and flushed with the PBS working solution to obtain normally hatched blastocysts.
The normally hatched blastocysts as obtained (about 100 blastocysts) were rinsed with 100 μl PBS solution for three times and then with 100 μl CZB working solution for another three times. Afterwards, the blastocysts were transferred into drops of the E-64d-CZB working solutions at 0, 0.5, 1, 1.5, 2, 3, 5, and 10 μmol/L, and then incubated in vitro in an incubator at 37° C., 5% CO2 in air, and 100% humidity for 2 hours.
The incubated embryos were washed twice with the PBS working solution, then subjected to PBS removal through a three-step process, and equilibrated for 5 min in a freezing solution (Bioniche, ViGRO™, ETHYLENE GLYCOL FREEZE (with Sucrose), Lot:150206-2P). Afterwards, the embryos were placed in 0.25 ml plastic straws. Then the straws containing the embryos were placed in a control rate freezer, cooled to −5° C. at a rate of 1° C./min, and then equilibrated for 10 min. During equilibration, the straws containing the embryos were clamped with pre-cooled forceps at the upper end for 3-5 seconds, thereby the freezing solution forming ice crystals, that is to say, ice seeding was completed. The straws containing the embryos were equilibrated for another 10 minutes, and then cooled down to −35° C. at a rate of 0.3° C./min. Subsequently, the frozen straws were placed in liquid nitrogen.
During thawing, the frozen straws were removed from the liquid nitrogen, gently shaken at room temperature for 5-10 seconds, placed in water at 35° C. for 10-15 seconds, and then removed from the water. The plugs at both ends of the straws were cut off, and then the embryos in the straws were placed in watch glasses, and subjected to the removal of the freezing solution through a three-step process. After recovery by thawing, the embryos were placed into drops of equilibrated fresh CZB for 24-hour recovery. After 24 hours, the thawed recovery rate was counted.
The three-step process for PBS removal as mentioned above was specifically as follows. Before the embryos were immersed in the freezing solution and then placed in straws for freezing, they were washed with 100 μl of the drops of the following mixed solutions sequentially (3-5 min for each mixed solution): the freezing solution ⅓+PBS ⅔, the freezing solution ½+PBS ½, and the freezing solution ⅔+PBS ⅓.
The three-step process for the removal of the freezing solution as mentioned above was specifically as follows. The embryos were washed with 100 μl of the drops of the following mixed solutions sequentially (3-5 min for each mixed solution): the freezing solution ⅔+PBS ⅓, the freezing solution ½+PBS ½, and the freezing solution ⅓+PBS ⅔.
All the experimental data was subjected to Chi-square analysis by SPSS 21.0 statistical software.

In the case of `CCOC(=O)[C@H]1O[C@@H]1C(=O)N[C@@H](CC(C)C)C(=O)NCCC(C)C` [E-64d, ethyl (2S,3S)-3-[[(2S)-4-methyl-1-(3-methylbutylamino)-1-oxopentan-2-yl]carbamoyl]oxirane-2-carboxylate], the “the thawed recovery rate (%)” value is 75.35 ± 3.51^b % (E-64d 0.5 μmol/L in CZB medium); 80.67 ± 5.40^Aa % (E-64d 1 μmol/L in CZB medium); 79.45 ± 4.28^Aa % (E-64d 1.5 μmol/L in CZB medium); 78.65 ± 2.56^b % (E-64d 2 μmol/L in CZB medium); 76.26 ± 5.32^b % (E-64d 3 μmol/L in CZB medium); 72.64 ± 2.13^B % (E-64d 5 μmol/L in CZB medium). Further, under “E-64d 10 μmol/L in CZB medium”, the “the thawed recovery rate (%)” value is 62.58% and 62.58 ± 3.72^B %. In addition, the “thawed recovery rate compared with the control (in words)” value is reported as “nearly comparable to that in absence of the inhibitor” (E-64d 5 μmol/L) and “improved to different extents as compared with the control” (E-64d 0.5-3 μmol/L). Besides, the “decrease of the thawed recovery rate as compared with the control” value (E-64d 10 μmol/L) is reported as “about 15%”. Besides, the “improvement of the thawed recovery rate as compared with the control” value (E-64d 1 or 1.5 μmol/L) is “about 10%”.
